According to US11827690B2, “ApoC-II mimetic peptides” (THE UNITED STATES OF AMERICA, as represented by the …, priority 2017, dated 2023):
“Also recorded” adds a separate entry of the source.

Assays:
[1] = tested on: VLDL isolated from human plasma; assay: ApoC-III displacement study in VLDL isolated from human plasma; format: binding
Experimental: VLDL or chylomicrons isolated from human plasma were incubated with an apoC-II mimetic peptide for 1 hour at 37° C. and washed 3 times with PBS using spin filter with 100 kDa cutoff membrane. […] ApoC-I, apoC-II, apoC-III, and apoE bands were identified by their corresponding size.

[2] = target: T1, LPL inhibited by apoC-III (Bos taurus, UniProt P11151); assay: LPL activation assay with high TG human plasma as substrate and recombinant apoC-III as an inhibitor; format: biochemical; settings: for effect on inhibition of LPL by apoC-III: high TG human plasma substrate
T1 sequence (P11151 29-478): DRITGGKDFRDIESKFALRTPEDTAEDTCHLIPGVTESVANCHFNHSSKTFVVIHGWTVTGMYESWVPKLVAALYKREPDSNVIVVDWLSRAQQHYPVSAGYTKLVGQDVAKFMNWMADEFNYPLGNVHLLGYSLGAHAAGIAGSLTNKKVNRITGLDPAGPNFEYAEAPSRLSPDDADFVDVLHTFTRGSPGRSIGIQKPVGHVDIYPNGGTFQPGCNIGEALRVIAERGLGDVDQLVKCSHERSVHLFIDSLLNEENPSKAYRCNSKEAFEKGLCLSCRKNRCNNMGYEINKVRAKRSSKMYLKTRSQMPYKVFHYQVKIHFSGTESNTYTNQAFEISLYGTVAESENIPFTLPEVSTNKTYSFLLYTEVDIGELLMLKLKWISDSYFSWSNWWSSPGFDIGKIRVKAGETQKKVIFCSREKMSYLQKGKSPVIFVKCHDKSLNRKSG
Experimental: LPL activity assay: 10 μL of Intralipid, human plasma sample, or mouse plasma sample was added in each well using repeater pipette. 10 μL (or 15 μL in the wells with no LPL control) of PBS and 10 μL of 1% BSA was added in each well using repeater pipette. 10 μL of peptides were added to corresponding wells in vertical triplicates (lowest concentration is on a left, highest is on the right). The plate was spun down at 1000 RPM for 10 seconds to mix and to remove the solutions from the wall of each well. The plate was put on ice and 5 μL of LPL was added using repeater pipette. The plate was spun down again at 1000 RPM for 10 seconds. The plate was covered and put back on ice for an incubation of 30 min. The plate was then moved to 37° C. and incubated for 1 hour.
Free fatty acids (NEFA) assay: 45 μL of 5 nmoL standard and 0 nmoL control (0.2% BSA) were added to corresponding wells. 225 μL of reagent A was added in each well using the reagent tray and 12-channel pipette. The plate was incubated for 10 min before 75 μL of reagent B was added to each well using the reagent tray and 12-channel pipette. The plate was not covered due to the high volume. The absorbance at 550 nm and 660 nm was measured.
LPL assay was performed using Intralipid, high TG human plasma (1:50 dilution), or apoC-III transgenic mouse plasma (1:50 dilution). When Intralipid was used as a substrate, 25 or 50 μM recombinant ApoC-III was added as an inhibitor. When the high TG human plasma was used as a substrate, 25 or 50 μM recombinant ApoC-III was added as an inhibitor with or without pre-incubation at 37° C. for 1 hour. An apoC-II mimetic peptide was added at various concentrations.

wild-type mice = assay: serum TG of wild-type mice after Intralipid injection with or without LPL inhibitor Triton WR1339; format: in vivo
Experimental: In some experiments, each animal received 20% Intralipid (FDA approved, Fresenius Kabi, Uppsala, Sweden) in a single dose either by oral gavage (using special sterile single-use non-toxic animal feeding needles) in a dose 10-20 μL/gram body weight (B.W.) (Tuzcu et al. Drug Chem Toxicol 37: 261-267, 2014; Kusminski et al. Nature Medicine 18: 1539-1549, 2012), or by intraperitoneal injection in a single bolus of 0.1-1.0 mL (Mahadero et al. American J Surgery 164: 45-50, 1992), or by intragastric administration of a dietetic commercially-available liquid oil (food grade vegetable, corn, soy or olive oil) in a single dose 10-20 μL/gram body weight. These oils were a source of TG—when absorbed TG tends to be broken down within 3 h (peak in 30 min) (Kritchevsky Nutritional Biochemistry 6:172-178, 1995). Blood samples (20-30 μL) were obtained from the retro-orbital plexus at time points: −1 h, 0 h, 1 h, 3 h, 6 h and 24 h for measurements of lipids. Mice were returned to metabolic cages after the 6 h time point where the food was put back. Once the study was completed (after 24 hours from the fat administration), mice were euthanized and organs collected.
The ability of apolipoprotein mimetic peptides to normalize hypertriglyceridemia in mice treated with an LPL inhibitor, Tyloxapol, in presence of high TG provided by 20% Intralipid, was assessed.
Mice were fasted overnight (approximately 12 hours) before the study and 6 hours during the study, the next day. The apo mimetic peptides were synthetically produced and free of biological contamination (not available as FDA approved compounds/treatment). Peptides were produced and used in sterile conditions and filtered by 0.2 nm filter before injections in a single dose 1-5 μmol/kg B.W. either S.C. or I.P. or I.V. (in a sterile, pharmaceutical grade PBS solution at a volume ≤200 μL). Next, 10% Tyloxapol (Triton WR-1339, T-0307, Sigma-Aldrich) was injected I.V. in a single dose of 5 μL/gram B.W., as described earlier (Zhang Y. L. et al., J Biol Chem. 279: 19362-19374, 2004; Abe C. et al., J. Nutr. 137: 345-350, 2007). […] Finally, each animal received 20% Intralipid (FDA approved, Fresenius Kabi, Uppsala, Sweden) in a single dose either by oral gavage (using special sterile single-use non-toxic animal feeding needles)—in a dose 10-20 μL/gram B.W. (Tuzcu K. et al., Drug Chem Toxicol., 37: 261-267, 2014, Kusminski C. et al., Nature Medicine. 18: 1539-1549, 2012), or by intraperitoneal injection—in a single bolus of 0.1-1.0 mL (Mahadero G. et al., American J Surgery. 164: 45-50, 1992). Blood samples (20-30 μL) were obtained from the retro-orbital plexus at time points: −1 h, 0 h, 1 h, 3 h, 6 h and 24 h for measurements of lipids. Mice were returned to metabolic cages after the 6 h time point where the food was put back. Once the study was completed (after 24 hours from the Intralipid administration), mice were euthanized and organs collected.

Sequence | affinity for the VLDL compared with the apolipoproteins [1] | selectivity of apolipoprotein displacement ([1]; MALDI-TOF mass spectrometry, FIG. 29A) | binding of peptide to VLDL versus concentration ([1]; MALDI-TOF, FIG. 29B) | influence of pre-incubation of apoC-III with human plasma on peptide effect [2] | concentration at which it overcame the inhibitory effect of apoC-III ([2]; 50 μM apoC-III, FIG. 32) | concentration at which it started to affect lipolysis ([2]; 50 μM apoC-III, FIG. 32) | effect on inhibition of LPL by apoC-III [2] | effect on inhibition of LPL by apoC-III ([2]; listed as ApoC-II-a) | block of rise in serum TG after IP injection of Intralipid (wild-type mice; co-injected with the LPL inhibitor Triton WR1339) | apoC-II displacement in VLDL ([1]; FIG. 49) | apoC-III displacement in VLDL ([1]; SDS PAGE) | effect on inhibition of LPL by Triton (wild-type mice; FIG. 35B) | serum TG increase after Intralipid injection (wild-type mice; intraperitoneal peptide, presence or absence of Triton, FIG. 35B) | serum TG increase after Intralipid injection (wild-type mice; repeat-dose study, peptide IP 1 hour after Intralipid, 0.25 and 1 μmole/kg, FIG. 46B)
DWLKAFYDKVAEKLKEAFPAMSTYTGIFTDQVLSVLKGEE (listed as Homo sapiens) [apoC-II-a, excluded from the claimed peptides] | higher affinity for the VLDL than the apolipoproteins | selectively replaced apoC-III and apoC-I, but not apoC-II; also recorded: selectively displaces apoC-III and apoC-I but not apoC-II | almost proportional to its concentration; also recorded: approximately proportional to its concentration | did not change the effect | about 0.2 μM | 0.01 µM | further facilitated lipolysis | overcomes the inhibition by apoC-III | about 50% |  |  |  |  | 
DYLKEVFEKLRDLYEKFTPAVSTYTGIFTDQVLSVLKGEE [Delta6PV] | higher affinity for the VLDL than the apolipoproteins |  |  |  |  |  | overcomes the inhibition of apoC-III |  |  | also displaced | displaced apoC-III in a dose-dependent matter | reversed the inhibition of LPL by Triton | the TG increase was significantly reduced | the TG increase was significantly reduced
